Experimental data published in patent US10532084B2, “Chondrocyte extracellular matrix-derived peptide” (EYEBIO KOREA, priority 2016, dated 2020).
Entries after “also recorded” stand apart in the source; their conditions may differ.

What was measured:
[1] = tested on: conjunctival goblet cells; assay: Distribution of conjunctival goblet cells (PAS staining), dry eye model; assay type: in vivo, NOD.B10.H2b mice
Procedure: (§1) NOD.B10.H2^b mice were purchased from Jackson Laboratory (Bar Harbor, Me., USA). Animal experiments were carried out in accordance with the guidelines approved by the University of Inje (No.; 2014-029) and ARVO regarding animal use for eye and vision research. NOD.B10.H2^b mice at 12-16 weeks old were exposed to 40-50% ambient humidity and ventilation using a fan for 18 hours a day as dry stress and subcutaneously injected with 0.5 mg/0.2 mL muscarinic receptor blocker. In addition, scopolamine hydrobromide (Sigma-Aldrich, St. Louis, Mo.) was injected alternately to the […] hips four times a day for 10 days at 9 am, […].
(§2) After 10 days of ocular dry stress, the scopolamine injection was stopped, and switched to a normal humidity and temperature environment and the dry stress was removed, 10 mg/ml Hyp-[…] and collagen were dissolved in normal saline to administer 5 μL each 5 times a day for 10 days, and normal saline and 0.1% HA were administered to the eyeball 5 times a day for 10 days. Three mice were used in each of the six experimental groups using both eyes of the mice and all experiments were repeated.
The distribution of conjunctival goblet cells according to eye drop in dry eye mice was observed.

[2] = tested on: rabbit cornea burned with alkali; conditions: rabbit alkaline burn
Procedure: The rabbits were randomly divided into an alkaline burn group (n=5) and a peptide treated group (n=5). In the alkaline burn group, normal saline was administered 4 times daily and in the peptide-treated group, Hyp-[…] peptide of 10 mg/mL was administered 4 times daily, and the left eye was used as a control group.

[3] = tested on: choroidal neovascularization (CNV); assay: Laser-induced choroidal neovascularization (CNV), lesion size by retina-choroid flat-mount; assay type: in vivo, C57BL/6 mice; conditions: mouse, laser irradiation
Procedure: C57BL/6 mice were purchased from Orient Bio and the animal experiments was carried out in accordance with the guidelines approved by the University of Inje (No, 2013-053) and ARVO regarding animal use for eye and vision studies. 6-week-old C57BL/6 mice were treated with diode green laser (532 nm, 150 mW, 0.1 sec, […], photocoagulator) to damage the retinal optic nerve area. […] The above experiment for each experiment group was performed using both eyes of five mice each. […]
The mouse was anesthetized and injected with 25 mg/ml of FITC-dextran in […] of retro-orbital. After 30 minutes, the mouse was euthanized and the eyeball was extracted and fixed with 10% formalin and then, the cornea and lens were removed and flat mounted on the cover glass. The neovasculature stained with FITC-dextran was observed by fluorescence microscopy (Leica) and the lesion size was measured by Image J program. […]

corneal epithelial cell = assay: Corneal epithelial cell detachment (H&E), dry eye model; assay type: in vivo, NOD.B10.H2b mice
Procedure: as §1, §2

[4] = tested on: VEGF, VEGFR-1 (Flt-1), VEGR-2 (Flk-1) and Angiopoietin 2; conditions: mouse, 14 days after laser, 5 μg
Procedure: C57BL/6 mice were purchased from Orient Bio and the animal experiments was carried out in accordance with the guidelines approved by the University of Inje (No, 2013-053) and ARVO regarding animal use for eye and vision studies. 6-week-old C57BL/6 mice were treated with diode green laser (532 nm, 150 mW, 0.1 sec, […], photocoagulator) to damage the retinal optic nerve area. Immediately after laser irradiation, CP1, CPII and positive control group Avastin were dissolved in PBS and administered […] each per a day in the eyeball for 5 days. The above experiment for each experiment group was performed using both eyes of five mice each.

hydroxy proline-GQDGLAGPK [Hyp-GQDGLAGPK]
goblet cell recovery vs dry stress (DS 10D) ([1]; 10 days of treatment): 2.3 times
goblet cells relative to CsA group ([1]; 10 days of treatment): 1.2 times
goblet cells relative to DQS group ([1]; 10 days of treatment): 1.5 times
goblet cells relative to HA group ([1]; 10 days of treatment): 1.6 times
goblet cells relative to collagen group ([1]; 10 days of treatment): 1.3 times
goblet cells relative to normal saline group ([1]; 10 days of treatment): 2.6 times
distribution of goblet cells in the conjunctiva (in words) ([1]; 10 days of treatment after removal of dry stress): significantly increased
conjunctival goblet cells ([1]; 10 days of treatment after removal of dry stress, normal 14.38±0.44, DS 10D 6.02±0.29): 13.9±0.83 /0.1 mm^2
corneal neovascularization in H&E stained tissue ([2]; 10 days treatment): neovascularization was significantly improved
histological changes of the cornea (epithelial proliferation, inflammatory cell invasion, edema, neovascularization) ([2]; 10 days treatment, H&E): showed an advanced improvement effect
corneal thickness ([2]; after 10 days of peptide treatment, normal 526.6, alkaline burn 960.6): 550.0 μm
CNV lesions ([3]; 2 μg intraocular injection for 5 days, listed as CPII): reduced; also recorded: decreased
CNV lesion size vs control group ([3]; 5 μg intraocularly for 5 consecutive days, 14 days after laser, FITC-dextran flat-mount): significantly decreased
reduction of corneal epithelial cell detachment vs CsA group (corneal epithelial cell; 10 days of treatment): 75%
reduction of corneal epithelial cell detachment vs DQS group (corneal epithelial cell; 10 days of treatment): 60%
reduction of corneal epithelial cell detachment vs HA group (corneal epithelial cell; 10 days of treatment): 77.8%
reduction of corneal epithelial cell detachment vs collagen group (corneal epithelial cell; 10 days of treatment): 55.6%
reduction of corneal epithelial cell detachment vs dry stress (DS 10D) (corneal epithelial cell; 10 days of treatment): 83.3%
reduction of corneal epithelial cell detachment vs normal saline group (corneal epithelial cell; 10 days of treatment): 71.4%
corneal epithelial cell detachment (corneal epithelial cell; 10 days of treatment after removal of dry stress, DS 10D 2.29±0.57): 0.38±0.17 /0.1 mm^2
protein expression of VEGF, VEGFR-1, -2 and Angiopoietin 2 compared with Avastin [4]: almost similar to that of Avastin
protein expression of VEGF, VEGFR-1, VEGFR-2 and Angiopoietin 2 in retina and choroid ([4]; immunoblotting): markedly decreased
